The subject of experiment [1] is K. pneomoniae S48 (NDM, SHV, TEM). Briefly: Antibacterial activity, MIC by agar dilution (CLSI). The format is cell-based, K. pneumoniae. Conditions: Klebsiella pneumoniae. On the procedure: (§1) The biological activity of representative compounds according to the invention against various bacterial strains was investigated. In a typical study, overnight grown bacterial cultures were diluted appropriately and inoculated on the agar media containing doubling dilutions of the test compounds. Observations for growth or no growth was performed after 16-20 hours of incubation at 35±2° C. in the ambient air. The overall procedure was performed as per Clinical and Laboratory Standards Institute (CLSI) recommendations, (Clinical and Laboratory Standards Institute (CLSI), Performance Standards for Antimicrobial Susceptibility Testing, 20th Informational Supplement, M07-A9, Volume 32, No. 2, 2012). Molten Mueller Hinton Agar (BD, USA) containing serial dilutions of each antibacterial agent were poured on to the plates and allowed to solidify. Appropriate suspensions from the freshly grown cultures were prepared in normal saline so that about 10^4 CFU/spot of the organism was delivered on to the drug containing agar plates using automated multipoint inoculator (Mast, UK). The plates were incubated in Biochemical oxygen demand (BOD) incubator at 37° C. for 18 hours and then examined for growth.
(§2) The strains selected for study included E. coli NCTC 13353 producing CTX-M15 and OXA-1 beta-lactamase enzymes; K. pneumoniae H521 producing KPC, SHV, TEM beta-lactamase enzymes; and K. pneumoniae S48 producing NDM, SHV, TEM beta-lactamase enzymes. The activities are expressed as Minimum Inhibitory Concentrations (MICs) (mcg/ml).

The target of experiment [2] is T1, Class D beta-lactamase, A. baumannii NCTC 13301 (OXA 23) (Acinetobacter baumannii, UniProt Q9L4P2).
T1 construct: preincubated mixture of crude enzyme and the agents; endogenous in cells; host or cells: A. baumannii NCTC 13301
T1 sequence (Q9L4P2 18-273): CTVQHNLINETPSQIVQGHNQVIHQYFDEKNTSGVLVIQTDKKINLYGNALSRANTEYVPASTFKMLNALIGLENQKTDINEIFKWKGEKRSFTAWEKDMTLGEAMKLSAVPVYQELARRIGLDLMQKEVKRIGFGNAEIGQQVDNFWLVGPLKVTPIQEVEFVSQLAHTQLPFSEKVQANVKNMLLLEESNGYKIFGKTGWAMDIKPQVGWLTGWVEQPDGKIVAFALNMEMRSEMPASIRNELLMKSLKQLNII
The experiment can be described thus: Beta-lactamase enzyme inhibition (nitrocefin, crude enzyme). The format is biochemical. On the procedure:
(§3) Determination of enzyme inhibition activity: Concentration of the inhibitor required to inhibit 50% of enzymatic activity was measured by adding a chromogenic substrate, Nitrocefin (100 uM, 5 min) to the preincubated mixture of crude enzyme and the agents (37° C., 10 min). Absorbance was measured at 485 nm by UV-spectrophotometer. The IC50 was calculated by plotting absorbance against concentration through Sigmoidal dose response curve using Graph Pad software.
(§4) The enzyme inhibition was expressed as IC50.

In experiment [3] the test system is E. coli NCTC 13353 (CTX-M15, OXA-1). The experiment can be described thus: Antibacterial activity, MIC by agar dilution (CLSI). Format: cell-based. Conditions: Escherichia coli. The method, then:
as §1
Table 2 details the antibacterial activity of representative compounds according to invention, against various Multi Drug Resistant (MDR) Gram-negative bacterial strains. The strains selected for study included E. coli NCTC 13353 producing CTX-M15 and OXA-1 beta-lactamase enzymes; K. pneumoniae H521 producing KPC, SHV, TEM beta-lactamase enzymes; and K. pneumoniae S48 producing NDM, SHV, TEM beta-lactamase enzymes. The activities are expressed as Minimum Inhibitory Concentrations (MICs) (mcg/ml).
In general terms: In agar dilution, organisms are placed on agar that contains the substance at set levels.

The target in experiment [4] is T2, Class A beta-lactamase, K. pneumoniae ATCC 700603 (SHV 18) (Klebsiella pneumoniae, UniProt P0AD64, E235K/G234A/R39S).
T2 construct: preincubated mixture of crude enzyme and the agents; endogenous in cells; host or cells: K. pneumoniae ATCC 700603
T2 sequence (P0AD64 22-286 R39S/G234A/E235K): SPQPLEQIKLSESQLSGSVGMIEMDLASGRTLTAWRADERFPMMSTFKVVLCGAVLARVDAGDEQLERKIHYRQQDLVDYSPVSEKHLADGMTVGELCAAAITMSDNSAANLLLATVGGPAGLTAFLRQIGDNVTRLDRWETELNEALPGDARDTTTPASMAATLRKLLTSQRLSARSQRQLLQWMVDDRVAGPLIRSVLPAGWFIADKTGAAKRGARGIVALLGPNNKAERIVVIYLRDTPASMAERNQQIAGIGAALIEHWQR
The experiment can be described thus: biochemical. The method, then:
as §3, §4

Experiment [5] relates to K. pneumoniae H521 (KPC, SHV, TEM). Briefly: Antibacterial activity, MIC by agar dilution (CLSI). The format is cell-based. Conditions: Klebsiella pneumoniae. On the procedure: as §1, §2
Where [6] appears, read: Class D A. baumannii NCTC 13301 (OXA 23), read-out: Beta-lactamase enzyme inhibition IC50.
Where [7] appears, read: 18 h, Table 2, K. pneomoniae S48 (NDM, SHV, TEM), read-out: MIC.
The mark [8] stands for this setting: NCTC13353, 18 h, Table 2, E. Coli NCTC 13353 (CTX-M15, OXA-1), read-out: MIC.
Setting [9] is: 18 h, Table 2, K. pneumoniae H521 (KPC, SHV, TEM), read-out: MIC.
Setting [10] is: Table 2, K. pneomoniae S48 (NDM, SHV, TEM), read-out: MIC.
The mark [11] stands for this setting: NCTC13353, Table 2, E. Coli NCTC 13353 (CTX-M15, OXA-1), read-out: MIC.
[12] abbreviates: Table 2, K. pneumoniae H521 (KPC, SHV, TEM), read-out: MIC.

≈ marks a conversion by molar mass, not a printed value. Where a name gives a salt, the structure may show the parent alone. Read-outs that look alike come from different tables or passages of the source.

Regarding `O=C(Cc1ccccc1)NNC(=O)[C@@H]1CC[C@@H]2CN1C(=O)N2OS(=O)(=O)O` [Example 4], the MIC in experiment [1] (18 h) was 2 µg/mL (≈ 5.02 µM); in experiment [3] (NCTC13353, 18 h), 1 µg/mL (≈ 2.51 µM); in experiment [5] (18 h), more than 32 µg/mL. For the same compound, the IC50 in experiment [2] (setting [6]) is 416 nM; in experiment [4] it was 19 nM.

For `CC(C)(C)C(=O)Oc1ccc(CC(=O)NNC(=O)[C@@H]2CC[C@@H]3CN2C(=O)N3OS(=O)(=O)O)cc1` [Example 22, sodium salt of 2,2-dimethyl-propionic acid 4-{2-oxo-2-[N′-((2S,5R)-7-oxo-6-sulphooxy-1,6-diaza-bicyclo[3.2.1]octane-2-carbonyl)-hydrazino]ethyl}-phenyl ester], the MIC in experiment [1] (setting [7]) was 32 µg/mL; in experiment [3] (setting [8]), 16 µg/mL; in experiment [5] (setting [9]), 32 µg/mL. Further, the 50% inhibitory concentration (IC50) in experiment [2] (setting [6]) turned out to be 973 nM; in experiment [4], 25 nM.

For `O=C(Cc1ccccc1O)NNC(=O)[C@@H]1CC[C@@H]2CN1C(=O)N2OS(=O)(=O)O` [Example 19, sodium salt of (2S,5R)-sulfuric acid mono-[2-(N′-(2-hydroxyphenyl-acetyl)-hydrazinocarbonyl)-7-oxo-1,6-diaza-bicyclo[3.2.1]oct-6-yl]ester], the MIC worked out at 2 µg/mL in experiment [1] (setting [7]), 1 µg/mL in experiment [3] (setting [8]) and 2 µg/mL in experiment [5] (setting [9]). For the same compound, the values for the IC50 in experiment [2] (setting [6]) and in experiment [4] were 677 nM and 13 nM, respectively.

For `COc1ccc(CC(=O)NNC(=O)[C@@H]2CC[C@@H]3CN2C(=O)N3OS(=O)(=O)O)cc1` [Example 14, sodium salt of (2S,5R)-sulfuric acid mono-[2-(N′-(4-methoxyphenyl-acetyl)-hydrazinocarbonyl)-7-oxo-1,6-diaza-bicyclo[3.2.1]oct-6-yl]ester], the MIC in experiment [1] (setting [7]) was determined as 1 µg/mL; in experiment [3] (setting [8]), 1 µg/mL; in experiment [5] (setting [9]), 8 µg/mL. For the same compound, the IC50 in experiment [2] (setting [6]) amounted to 105 nM.

In the case of `CCOc1ccccc1CC(=O)NNC(=O)[C@@H]1CC[C@@H]2CN1C(=O)N2OS(=O)(=O)O` [Example 15, sodium salt of (2S,5R)-sulfuric acid mono-[2-(N′-(2-ethoxyphenyl-acetyl)-hydrazinocarbonyl)-7-oxo-1,6-diaza-bicyclo[3.2.1]oct-6-yl]ester], the MIC in experiment [1] (setting [7]), in experiment [3] (setting [8]) and in experiment [5] (setting [9]) was more than 32 µg/mL each time. The IC50 in experiment [2] (setting [6]) worked out at 210 nM; in experiment [4], 49 nM.

`CC(C)(C)OC(=O)CC(=O)Oc1ccc(CC(=O)NNC(=O)[C@@H]2CC[C@@H]3CN2C(=O)N3OS(=O)(=O)O)cc1` [Example 26, sodium salt of (2S,5R)-malonic acid tert-butyl ester 4-{2-oxo-2-[N′-(7-oxo-6-sulphooxy-1,6-diaza-bicyclo[3.2.1]octane-2-carbonyl)-hydrazino]ethyl}-phenyl ester]: the MIC in experiment [1] (setting [7]) was 2 µg/mL; in experiment [3] (setting [8]) it was 2 µg/mL; in experiment [5] (setting [9]), 4 µg/mL. Moreover, the IC50 was found to be 370 nM in experiment [2] (setting [6]) and 25 nM in experiment [4].

As to `CC(C)[C@H](NC(=O)Oc1ccc(CC(=O)NNC(=O)[C@@H]2CC[C@@H]3CN2C(=O)N3OS(=O)(=O)O)cc1)C(=O)OC(C)(C)C` [Example 29, sodium salt of (S)-3-methyl-2-(4-{2-oxo-2-[N′-((2S,5R)-7-oxo-6-sulphooxy-1,6-diaza-bicyclo[3.2.1]-octane-2-carbonyl)-hydrazino]-ethyl}-phenoxycarbonylamino)-butyric acid tert-butyl ester], the MIC is 4 µg/mL in experiment [1], 4 µg/mL in experiment [3] (NCTC13353) and 16 µg/mL in experiment [5]. Also, the results for the IC50 in experiment [2] and in experiment [4] were 2850 nM and 327 nM, respectively.

For `O=C(Cc1ccccn1)NNC(=O)[C@@H]1CC[C@@H]2CN1C(=O)N2OS(=O)(=O)O` [Example 8, Sodium salt of (2S,5R)-Sulfuric acid mono-[2-(N′-(pyridine-2-yl-acetyl)-hydrazinocarbonyl)-7-oxo-1,6-diaza-bicyclo[3.2.1]oct-6-yl] ester], the MIC in experiment [1] (setting [10]) was determined as 0.5 µg/mL; in experiment [3] (setting [11]), 0.5 µg/mL; in experiment [5] (setting [12]) it was 2 µg/mL. Further, the IC50 in experiment [2] (setting [6]) was 466 nM; in experiment [4] it was 25 nM.

In the case of `O=C(Cc1cccc(O)c1)NNC(=O)[C@@H]1CC[C@@H]2CN1C(=O)N2OS(=O)(=O)O` [Example 20, sodium salt of (2S,5R)-sulfuric acid mono-[2-(N′-(3-hydroxyphenyl-acetyl)-hydrazinocarbonyl)-7-oxo-1,6-diaza-bicyclo[3.2.1]oct-6-yl]ester], the MIC turned out to be 0.5 µg/mL in experiment [1] (18 h); 0.5 µg/mL in experiment [3] (NCTC13353, 18 h); 1 µg/mL in experiment [5] (18 h). The results for the IC50 in experiment [2] (setting [6]) and in experiment [4] were 249 nM and 12 nM, respectively.

As to `N#Cc1ccc(CC(=O)NNC(=O)[C@@H]2CC[C@@H]3CN2C(=O)N3OS(=O)(=O)O)cc1` [Example 10, sodium salt of (2S,5R)-sulfuric acid mono-[2-(N′-(4-cyanophenyl-acetyl)-hydrazinocarbonyl)-7-oxo-1,6-diaza-bicyclo[3.2.1]oct-6-yl]ester], the MIC was 1 µg/mL in experiment [1] (setting [7]), 1 µg/mL in experiment [3] (setting [8]) and 4 µg/mL in experiment [5] (setting [9]). For the same compound, the IC50 in experiment [2] (setting [6]) stood at 805 nM; in experiment [4], 162 nM.

On to `CN(C)c1ccc(CC(=O)NNC(=O)[C@@H]2CC[C@@H]3CN2C(=O)N3OS(=O)(=O)O)cc1` [Example 13, sodium salt of (2S,5R)-sulfuric acid mono-[2-(N′-(4-N,N-dimethylaminophenyl-acetyl)-hydrazinocarbonyl)-7-oxo-1,6-diaza-bicyclo[3.2.1]oct-6-yl]ester], for which the MIC in experiment [1] (setting [7]) was 8 µg/mL; in experiment [3] (setting [8]), 8 µg/mL; in experiment [5] (setting [9]) it was more than 32 µg/mL. Also, the IC50 was determined as 629 nM in experiment [2] (setting [6]) and 62 nM in experiment [4].

`O=C(CCCc1ccccc1)NNC(=O)[C@@H]1CC[C@@H]2CN1C(=O)N2OS(=O)(=O)O` [Example 6, sodium salt of (2S,5R)-sulfuric acid mono-[2-(N′-(4-phenyl-butanoyl)-hydrazinocarbonyl)-7-oxo-1,6-diaza-bicylo[3.2.1]oct-6-yl]ester]: the figures for the MIC in experiment [1] (setting [7]), in experiment [3] (setting [8]) and in experiment [5] (setting [9]) were 32 µg/mL, 16 µg/mL and more than 32 µg/mL, respectively. The IC50 in experiment [2] (setting [6]) is 207 nM.

On to `O=C(Cc1ccc(Cl)cc1)NNC(=O)[C@@H]1CC[C@@H]2CN1C(=O)N2OS(=O)(=O)O` [Example 9, sodium salt of (2S,5R)-sulfuric acid mono-[2-(N′-(4-chlorophenyl-acetyl)-hydrazinocarbonyl)-7-oxo-1,6-diaza-bicyclo[3.2.1]oct-6-yl]ester], for which the MIC is 1 µg/mL in experiment [1] (18 h); 1 µg/mL in experiment [3] (NCTC13353, 18 h); 4 µg/mL in experiment [5] (18 h). The IC50 in experiment [2] (setting [6]) was 173 nM.

`NC(=O)[C@@H]1CC[C@@H]2CN1C(=O)N2OS(=O)(=O)O` [Avibactam, avibactam, reference compound]: the midpoint of inhibition in experiment [4], the IC50, lay at 98 nM.

Consider `O=C(Cc1ccc(O[C@H]2CCNC2)cc1)NNC(=O)[C@@H]1CC[C@@H]2CN1C(=O)N2OS(=O)(=O)O` [Example 64], for which the MIC in experiment [1] (setting [10]) was determined as 0.5 µg/mL (≈ 1.03 µM); in experiment [3] (setting [11]), 0.5 µg/mL (≈ 1.03 µM); in experiment [5] (setting [12]), 1 µg/mL (≈ 2.07 µM). The IC50 was 432 nM in experiment [2] (setting [6]) and 47 nM in experiment [4].

In general, MIC refers to the lowest concentration found to suppress growth. One may read the IC50 as the point on the concentration scale where inhibition reaches its midpoint.

Source of the values: US9822115B2, “Nitrogen containing compounds and their use as antibacterial agents” (WOCKHARDT LIMITED, priority 2014, dated 2017).
